# Assay results as given in paper PMC10582773, “A clathrin-related protein FaRRP1/SCD2 integrates ABA trafficking and signaling to regulate strawberry fruit ripening” (The Journal of Biological Chemistry, 2023).
# pKd: −log10 of the molar value.
# Legend:
# [1] = molecular target: FaRRP1-His/MBP fusion protein (Fragaria × ananassa, UniProt K9LRD7); experiment: ITC binding of ABA to FaRRP1
# From the text: (§1) The expression and purification of the recombinant proteins FaRRP1, FaPYL2, and FaABAR were done by a prokaryotic (E. coli) expression system. The cDNA encoding the FaRRP1, FaPYL2, and FaABAR was synthesized using the aforementioned method by PCR amplification using the primers listed in Table S1. The recombinant plasmids of pET-28a-FaPYL2-His, pMAL-C5X-FaRRP1-His/MBP, pGEX4T-1-FaRRP1-GST, pET-28a-FaABAR-His were constructed. After positive recombinants were identified by double-digesting and sequencing, the E. coli strain BL21 (DE3) cells with the recombinant plasmid were grown in 500 ml LB medium containing different antibiotics at 37 °C. On A600 at 0.6 to 0.7, 0.5 mM IPTG was added to inducibly express the fusion proteins overnight at 16 °C for 12 h. The cultures were harvested and suspended with 20 ml binding buffer (20 mM Na2HPO4, 20 mM NaH2PO4, 300 mM NaCl, 20 mM MgCl2, 10 mM imidazole, pH 7.4), then lysed by sonication in a Misonix Sonifier at 4 °C; finally, the supernatants were loaded onto BeaverBeads IDA- Ni^2+ (Beaver) columns and mixed gently by shaking at 4 °C for 60 min. […]
# (§2) The purified protein was concentrated using an Amicon Ultra-4 centrifugal 3-kDa filter (Millipore) at 3000g for 20 min in a swing bucket rotor (Sigma). […] The binding reaction between fusion protein to ABA was detected by ITC. […]
# [2] = molecular target: FaPYL2-His fusion protein; experiment: ITC binding of ABA to FaPYL2; design: species or system Fragaria × ananassa; settings: 0.4 mM S-(+)-ABA titrated into 20 μM protein, pH 7.4, 25 °C, endothermic, saturation curve
# From the text: as §1, §2
# [3] = molecular target: T1, FaABAR-His fusion protein (Fragaria × ananassa, UniProt C6KF71); experiment: ITC binding of ABA to FaABAR
# T1 sequence (C6KF71 1-1381): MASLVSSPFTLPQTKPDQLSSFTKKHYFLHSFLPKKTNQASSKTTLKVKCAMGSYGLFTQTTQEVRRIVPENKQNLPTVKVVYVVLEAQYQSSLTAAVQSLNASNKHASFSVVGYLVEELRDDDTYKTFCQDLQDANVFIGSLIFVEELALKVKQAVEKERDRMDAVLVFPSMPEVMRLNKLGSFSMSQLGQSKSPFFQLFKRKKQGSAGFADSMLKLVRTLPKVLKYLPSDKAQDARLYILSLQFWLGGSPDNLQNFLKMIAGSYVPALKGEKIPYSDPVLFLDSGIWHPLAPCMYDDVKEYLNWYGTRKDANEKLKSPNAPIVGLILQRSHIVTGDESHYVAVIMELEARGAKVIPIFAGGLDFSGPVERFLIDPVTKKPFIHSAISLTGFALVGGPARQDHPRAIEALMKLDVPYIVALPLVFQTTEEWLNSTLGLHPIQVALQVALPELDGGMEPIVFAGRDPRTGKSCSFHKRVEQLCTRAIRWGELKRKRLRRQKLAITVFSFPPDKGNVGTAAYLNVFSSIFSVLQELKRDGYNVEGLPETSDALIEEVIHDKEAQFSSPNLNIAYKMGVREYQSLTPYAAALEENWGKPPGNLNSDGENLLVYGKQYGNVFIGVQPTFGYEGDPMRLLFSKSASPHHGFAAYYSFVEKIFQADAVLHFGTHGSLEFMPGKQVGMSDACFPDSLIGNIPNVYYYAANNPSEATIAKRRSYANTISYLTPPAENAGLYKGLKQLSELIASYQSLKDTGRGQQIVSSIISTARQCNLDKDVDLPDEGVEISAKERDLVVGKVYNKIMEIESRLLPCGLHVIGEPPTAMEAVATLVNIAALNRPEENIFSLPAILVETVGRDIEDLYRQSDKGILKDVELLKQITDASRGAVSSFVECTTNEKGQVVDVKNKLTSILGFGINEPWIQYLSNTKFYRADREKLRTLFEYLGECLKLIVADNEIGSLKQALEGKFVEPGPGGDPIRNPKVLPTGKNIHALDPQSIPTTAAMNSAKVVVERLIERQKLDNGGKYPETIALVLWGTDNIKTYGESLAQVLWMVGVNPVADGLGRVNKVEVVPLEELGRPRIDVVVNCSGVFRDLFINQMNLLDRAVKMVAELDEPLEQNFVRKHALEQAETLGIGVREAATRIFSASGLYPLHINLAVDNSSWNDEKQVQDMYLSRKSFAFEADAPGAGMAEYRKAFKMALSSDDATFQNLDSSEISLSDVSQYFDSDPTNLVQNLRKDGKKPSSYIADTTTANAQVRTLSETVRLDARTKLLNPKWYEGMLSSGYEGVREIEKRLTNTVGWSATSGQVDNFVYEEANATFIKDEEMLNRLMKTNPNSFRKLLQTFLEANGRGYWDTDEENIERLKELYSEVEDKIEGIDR
# From the text: as §1, §2
# [4] = molecular target: FaRRP1–FaPYL2 protein complexes; experiment: ITC binding of ABA to FaRRP1–FaPYL2 complex; design: species or system Fragaria × ananassa; settings: 0.4 mM S-(+)-ABA titrated into 20 μM complex, pH 7.4, 25 °C, endothermic
# Experimental: (§3) Whether FaRRP1 affects the binding activity of FaPYL2 and FaABAR to ABA is unclear. For this, FaRRP1-His/MBP, FaPYL2-His, and FaABAR-His were purified and dialyzed into the same buffer (ITC Buffer) (20 mM Na2HPO4, 20 mM NaH2PO4, 300 mM NaCl, 20 mM MgCl2 pH 7.4). Then, the molar concentrations of FaRRP1-FaPYL2 and FaRRP1-FaABAR complexes were mixed into the same ratio and placed at 4 °C for 30 min. Finally, 1-fold protein peptide and 20-fold S- (+)-ABA were used for ITC assays (Fig. 5, D and H).
# (§4) The purified protein was concentrated using an Amicon Ultra-4 centrifugal 3-kDa filter (Millipore) at 3000g for 20 min in a swing bucket rotor (Sigma). The protein was then desalted for buffer exchange using a HiTrap desalting column (GE Healthcare). The HiTrap desalting column was filled with ITC buffer (20 mM Na2HPO4, 20 mM NaH2PO4, 300 mM NaCl, 20 mM MgCl2, pH 7.4) to remove ethanol completely and equilibrate the column. The final concentration of the FaRRP1-His/MBP, FaPYL2-His, and FaABAR-His fusion protein was adjusted to 20 μM. The binding reaction between fusion protein to ABA was detected by ITC. To ensure the univariate of the experiment, an ITC buffer was used to prepare an ABA solution with 20 times protein concentration to ensure the matching of buffer environment between the two. The ITC analysis used 20-μM fusion protein and 400-μM ABA in an ITC200 calorimeter (MicroCal). […]
# [5] = molecular target: FaRRP1–FaABAR protein complexes (Fragaria x ananassa, UniProt C6KF71+K9LRD7); experiment: ITC binding of ABA to FaRRP1–FaABAR complex; settings: 0.4 mM S-(+)-ABA titrated into 20 μM complex, pH 7.4, 25 °C, exothermic
# Experimental: as §3, §4
# [6] = system: clathrin-mediated vesicle transport genes; experiment: RT-qPCR of clathrin-mediated vesicle transport genes in ABA-incubated fruit discs; type: cell-based, Fragaria × ananassa; settings: 100 μM ABA, white-stage fruit discs, vs control
# Experimental: In vitro treatments were performed on fruits in the white stage using 100 μM ABA, and ABA-free buffer incubation was used as the control. The incubation was done as described by Song et al. ([77]). After a 2-h incubation followed by washing with double-distilled water, the discs were frozen in liquid nitrogen and kept at −80 °C until use. Samples are collected once at 0 h, 1 h, and 2 h. The experiment was performed with three replicates.
# Total RNA was isolated from the fruit using the aforementioned method. The first-strand cDNA was used as the template for RT-qPCR, which was performed using the Trans Start Top UreenqPCR Super Mix Kit (TransGen Biotech) on the Light Cycler 96 real-time PCR system, with cDNA under different treatments as the template and strawberry Actin as the internal reference gene. The reaction procedures were as follows: predenaturation at 94 °C for 30 s, followed by 40 cycles of denaturation at 94 °C for 5 s, annealing at 60 °C for 15 s, and extension at 72 °C for 10 s. The experiment was duplicated three times independently. The Actin of the standard sample and the cDNA of the sample to be tested were repeated three times. Relative expression values were calculated by the 2^−ΔΔCt method, and SPSS22.0 software (https://www.spss.com) was used to analyze the experimental data.
# [7] = system: FaRRP1-mediated endocytosis in root cells; experiment: Endocytosis experiment under ABA treatment (FM4-64 staining of root cells); type: cell-based, Arabidopsis; settings: 0.1 μM ABA 48 h, 10-days-old seedlings, 5 μM FM4-64 10 min; FaRRP1-OE line compared with WT
# Experimental: The 10-days-old FaRRP1 OE and WT Arabidopsis seedlings growing under the normal condition were collected and soaked into the equilibrium solution [1/2 MS salt (pH=5.70), 1% sugar (w/v)] for 30 min. Then, the seedlings were treated with 0.1 μM ABA. After 48 h later, these seedlings were stained with 5 μM FM4-64 (Invitrogen) dye for 10 min, washed with equilibrium solution for 3 times, and root cells were observed under a confocal laser scanning microscope (Zeiss LSM 710 META). The experiment was repeated three times.
# [8] = molecular target: FaRRP1-His/MBP recombinant fusion protein (strawberry ripening-regulated protein 1) (Fragaria x ananassa (strawberry)); experiment: ITC; 200 uM FaPYL2 dropped into 20 uM FaRRP1; ITC200 (MicroCal), 25 C; ITC buffer 20 mM Na2HPO4, 20 mM NaH2PO4, 300 mM NaCl, 20 mM MgCl2, pH 7.4; 20 injections
# [9] = molecular target: FaABAR-His recombinant fusion protein (magnesium chelatase H subunit) (Fragaria x ananassa (strawberry)); experiment: ITC; 200 uM FaRRP1 dropped into 20 uM FaABAR; ITC200 (MicroCal), 25 C; ITC buffer 20 mM Na2HPO4, 20 mM NaH2PO4, 300 mM NaCl, 20 mM MgCl2, pH 7.4; 20 injections
# [10] = 2 h, decreased in contrast to 1 h treatment
# Chain of FaRRP1-His/MBP fusion protein (K9LRD7 1-566): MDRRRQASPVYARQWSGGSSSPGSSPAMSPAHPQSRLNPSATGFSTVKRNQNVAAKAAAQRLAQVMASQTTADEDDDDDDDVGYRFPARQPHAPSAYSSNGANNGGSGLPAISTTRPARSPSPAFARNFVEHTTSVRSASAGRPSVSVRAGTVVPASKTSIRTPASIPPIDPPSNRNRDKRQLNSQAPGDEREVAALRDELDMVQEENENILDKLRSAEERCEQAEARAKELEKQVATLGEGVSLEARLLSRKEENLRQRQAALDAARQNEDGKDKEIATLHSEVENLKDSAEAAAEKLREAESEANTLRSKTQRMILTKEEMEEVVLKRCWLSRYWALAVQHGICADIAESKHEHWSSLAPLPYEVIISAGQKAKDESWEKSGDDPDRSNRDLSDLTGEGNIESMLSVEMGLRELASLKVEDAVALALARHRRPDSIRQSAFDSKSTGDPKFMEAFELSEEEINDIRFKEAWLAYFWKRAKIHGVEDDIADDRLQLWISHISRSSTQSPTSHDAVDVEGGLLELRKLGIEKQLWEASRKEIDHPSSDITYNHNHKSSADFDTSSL
# Chain of FaRRP1–FaABAR protein complexes (K9LRD7 1-566, one chain of several): as the sequence (K9LRD7 1-566) above
# Chain of FaRRP1-His/MBP recombinant fusion protein (strawberry ripening-regulated protein 1) (Fragaria x ananassa (strawberry)) (K9LRD7 entry or part of it): as the sequence (K9LRD7 1-566) above
compound,measurement,setting,value
"CC1=CC(=O)CC(C)(C)[C@@]1(O)/C=C/C(C)=C\C(=O)O [ABA, Abscisic acid]",N (stoichiometry) ABA-FaRRP1,"[1]; ITC fit, 0.4 mM ABA into 20 μM FaRRP1",0.41 Sites
same,pKd,"[1]; ITC, 0.4 mM S-(+)-ABA titrated into 20 μM protein, pH 7.4, 25 °C, exothermic, saturation curve",3.85
same,pKd,[2],3.99
same,N (stoichiometry) ABA-FaABAR,"[3]; ITC fit, 0.4 mM ABA into 20 μM FaABAR",8.60 Sites
same,pKd,"[3]; ITC, 0.4 mM S-(+)-ABA titrated into 20 μM protein, pH 7.4, 25 °C, endothermic, could not reach saturation curve",3.59
same,pKd,[4],4.51
same,pKd,[5],4.06
same,expression of FaAP1,[6]; 1 h,significantly increased
same,expression of FaAP2,[6]; 1 h,significantly increased
same,expression of FaCHC1,[6]; 1 h,not changed
same,expression of FaCHC2,[6]; 1 h,significantly increased
same,expression of FaCLC1,[6]; 1 h,significantly increased
same,expression of FaCLC2,[6]; 1 h,decreased considerably
same,expression of FaSCD1,[6]; 1 h,significantly increased
same,expression of FaSCD2,[6]; 1 h,significantly increased
same,expression of FaAP1,[6]; 2 h,significantly decreased
same,expression of FaCHC1,[6]; 2 h,quite upregulated
same,expression of FaCHC2,[6]; 2 h,significantly decreased
same,expression of FaCLC2,[6]; 2 h,quite upregulated
same,expression of FaSCD1,[6]; 2 h,significantly decreased
same,expression of FaAP2,[6]; [10],significantly increased
same,expression of FaSCD2,[6]; [10],significantly increased
same,degree of PM internalization (FM4-64–labeled fluorescent signal),[7],promote the degree of PM internalization
FaPYL2-His recombinant fusion protein (natural protein),pKd,[8],4.12
FaRRP1-His/MBP recombinant fusion protein (strawberry ripening-regulated protein 1) (natural protein),pKd,[9],3.77
